For assay [1], the target named is Tyrosine-protein kinase BTK (Homo sapiens, UniProt Q06187). In words: Inhibition of human BTK-A using phosphorylated substrate in presence of ATP by microplate reader assay.
For assay [2], the system named is OCI-Ly10. The experiment in a line: Antiproliferative activity against human OCILY10 cells assessed as reduction in cell proliferation measured after 96 hrs. The class given is functional, cell-based. The conditions noted are these: OCI-Ly10, 96 h.
The subject of assay [3] is OCI-Ly10. The experiment in a line: Antiproliferative activity against human OCILY10 cells harboring BTK C481S mutant […] gene assessed as reduction in cell viability after 96 hrs. It is filed as functional, cell-based. The note with it: OCI-Ly10, 96 h.

Sequence of Tyrosine-protein kinase BTK (Q06187 whole entry): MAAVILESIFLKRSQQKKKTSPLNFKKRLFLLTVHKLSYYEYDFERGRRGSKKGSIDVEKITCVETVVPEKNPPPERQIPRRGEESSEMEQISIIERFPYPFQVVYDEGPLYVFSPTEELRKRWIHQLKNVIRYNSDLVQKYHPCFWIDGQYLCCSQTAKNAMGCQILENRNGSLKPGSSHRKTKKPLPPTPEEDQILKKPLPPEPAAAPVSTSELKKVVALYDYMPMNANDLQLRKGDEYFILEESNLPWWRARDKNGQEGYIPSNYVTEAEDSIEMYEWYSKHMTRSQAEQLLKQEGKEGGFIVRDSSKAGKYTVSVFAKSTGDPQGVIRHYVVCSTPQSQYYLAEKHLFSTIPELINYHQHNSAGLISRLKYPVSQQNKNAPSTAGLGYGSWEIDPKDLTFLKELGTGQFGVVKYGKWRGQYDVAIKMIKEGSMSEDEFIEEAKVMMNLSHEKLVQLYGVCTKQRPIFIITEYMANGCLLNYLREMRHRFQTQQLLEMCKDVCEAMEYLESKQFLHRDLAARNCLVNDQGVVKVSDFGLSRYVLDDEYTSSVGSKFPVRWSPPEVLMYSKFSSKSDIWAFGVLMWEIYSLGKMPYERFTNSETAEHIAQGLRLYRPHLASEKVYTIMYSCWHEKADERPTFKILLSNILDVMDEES

With `Nc1nc(-c2cccc(-n3ccc4cc(C5CC5)cc(F)c4c3=O)c2CO)c2cc(C3=CCNCC3)[nH]c2n1`, the IC50 in assay [1] was 0.65 nM.
As to `CN1CCN(C(=O)N2CC=C(c3cc4c(-c5cccc(-n6ccc7cc(C8CC8)cc(F)c7c6=O)c5CO)nc(N)nc4[nH]3)CC2)CC1`, in assay [1], the IC50 came out at 0.65 nM.
`CC(=O)N1CC=C(c2cc3c(-c4cccc(-n5ccc6cc(C7CC7)cc(F)c6c5=O)c4CO)nc(N)nc3[nH]2)CC1`: in assay [1], the IC50 came to 0.71 nM.
Same read-out and setting: the figure for `Nc1nc(-c2cccc(-n3ccc4cc(C5CC5)cc(F)c4c3=O)c2CO)c2cc(-c3ccccc3)[nH]c2n1` is 14 nM; for `Cc1cc2c(-c3cccc(-n4ccc5cc(C6CC6)cc(F)c5c4=O)c3CO)nc(N)nc2[nH]1` it is 49 nM.
Take `Nc1nc(-c2cccc(-n3ccc4cc(C5CC5)cc(F)c4c3=O)c2CO)c2cc(C3=CCCCC3)[nH]c2n1`: the IC50 in assay [1] was 2.6 nM.
For `Nc1nc(-c2cccc(-n3ccc4cc(C5CC5)cc(F)c4c3=O)c2CO)c2cc(C3=CCN(C(=O)CN4CCOCC4)CC3)[nH]c2n1`, the values for the IC50 (in assay [1]; in the assay with OCI-Ly10 [2]) were 0.69 nM and 13 nM, respectively.
In the case of `Nc1nc(-c2cccc(-n3ccc4cc(C5CC5)cc(F)c4c3=O)c2CO)c2cc[nH]c2n1`, the half-inhibitory concentration (IC50) in assay [1] is 51 nM.
On to `Nc1nc(-c2cccc(-n3ccc4cc(C5CC5)cc(F)c4c3=O)c2CO)c2cc(-c3cccnc3)[nH]c2n1`, for which the IC50 in assay [1] worked out at 2.1 nM.
Turning to `CN(C)C(=O)N1CC=C(c2cc3c(-c4cccc(-n5ccc6cc(C7CC7)cc(F)c6c5=O)c4CO)nc(N)nc3[nH]2)CC1`, the concentration for half-maximal inhibition (IC50) in assay [1] came out at 0.54 nM.
On the same count and under the same terms, in the case of `Nc1nc(-c2cccc(-n3ccc4cc(C5CC5)cc(F)c4c3=O)c2CO)c2cc(-c3ccncc3)[nH]c2n1` it was 0.14 nM.
With `C=CC(=O)N1CCC[C@@H](n2nc(-c3ccc(Oc4ccccc4)cc3)c3c(N)ncnc32)C1` [IBRUTINIB], the half-inhibitory concentration (IC50) in the assay on OCI-Ly10 [3] turned out to be 1030 nM.
